# Measured values as given in patent publication US20220184222A1, “BICYCLE TOXIN CONJUGATES AND USES THEREOF” (BicycleTx Limited, priority 2019, published 2022).
# Starred links: 1 amine or outer side, 2 acyl side, 3 side chain; linkers in the order of their positions; H or OH if unused. Non-standard residues stand in square brackets, D forms with d. Residues, ends and D or L forms follow the SMILES beside them. *: point of attachment. Dolaproine = CO[C@@H]([C@@H]1CCCN1)[C@@H](C)C(=O)O; Dil = CC[C@H](C)[C@H](NC)[C@@H](CC(=O)O)OC; PABC = O=C(OCc1ccc(N[*:1])cc1)[*:2]; X1 = O=C(CCCC(=O)*)ON1C(=O)CCC1=O; X2 = C[C@@H](N*)[C@@H](O)c1ccccc1; Cit = NC(=O)NCCC[C@H](N)C(=O)O; NMeV = CN[C@H](C(=O)O)C(C)C
# Tests used:
# CTG-0838 = assay: Champions TumorGraft NSCLC PDX efficacy, model CTG-0838; format: in vivo, Mus musculus
# Experimental: (§1) Mice were implanted subcutaneously into the left flank with tumor fragments from one of the various models. After tumors grew to an average of 150-300 mm^3, mice were treated by IV administration Q7Dx4 (n=2) with vehicle or 3 mg/kg of BT5528. Effects on tumor growth were evaluated by measuring percent tumor growth inhibition (% TGI), and the number of complete responders (CR), partial responders (PR), and tumor-free survivors (TFS). Tolerability was assessed by body weight loss, lethality, and clinical signs of adverse treatment-related side effects. Tumor volumes and body weights were measured twice a week.
# (§2) Dosing solutions of BT5528 […] were pre-formulated. These dosing solutions were stored at −80° C. in the dark. On each day of dosing, a frozen aliquot of each test agent was thawed, stored at 2-8° C. and used for dosing.
# (§3) The animals used in this study are described below: • Species: Mus musculus • Strain: Athymic Nude-Foxn1^nu (immune-compromised) • Source: Envigo (Indianapolis, Ind., USA) • Number of animals per group: 2 • Age and sex: At least 6-8 weeks of age at start of dosing, female • Weight: At least 18 grams at start of dosing • Acclimation period: 3 days
# (§4) Stock mice were implanted with tumor cells from Champions TumorGraft® models CTG-0160, CTG-0170, CTG-0178, CTG-0192, CTG-0363, CTG-0808, CTG-0838, CTG-0848, CTG-1212, CTG-1502, CTG-1535, CTG-2011, CTG-2393, CTG-2539 or CTG-2540. After the tumors reached 1000-1500 mm^3, they were harvested and the tumor fragments (approximately 5×5×5 mm^3) were implanted SC in the left flank of the female study mice. Each animal was implanted with a specific passage lot and documented. Tumor growth was monitored twice a week using digital calipers and the tumor volume (TV) was calculated using the formula (0.52×[length×width^2]). When the TV reached an average volume of 150-300 mm^3, animals were matched by tumor size and assigned into Vehicle Control and treatment groups (n=2/group) and dosing was initiated on Day 0. After the initiation of dosing on Day 0, animals were weighed twice per week using a digital scale and TV was measured twice per week and also on the final day of study. The study was completed when the mean tumor volume of Vehicle Control reached 1500 mm^3 or up to Day 60, whichever occurred first.
# (§5) Beginning on Day 0, animals were observed daily and weighed twice weekly using a digital scale; data including individual and mean gram weights, mean percent weight change versus Day 0 (% vD0) were recorded for each group and % vD0 plotted at study completion. […] Treatment resulting in a mean % vD0>20% and/or >10% mortality was considered above the maximum tolerated dose. Maximum mean % vD0 (weight nadir) for each treatment group was reported at study completion.
# (§6) Inhibition of tumor growth was determined by calculating the percent TGI (100%×[1−(final MTV−initial MTV of a treated group)/(final MTV−initial MTV of the control group)]). Treatment started on Day 0.
# (§7) Additional endpoints used to evaluate efficacy were: the number of complete responders (CR), partial responders (PR), and tumor-free survivors (TFS). PRs were considered exclusive of CRs, as were TFS.
# (§8) Statistical analyses of anti-tumor efficacy were performed using one-way ANOVA followed by Dunnett's multiple comparisons test (GraphPad Prism version 8.2.0). Significant p-values=<0.05.
# Animals were dosed according to the schedule on Table 7-1. The study was terminated on Day 27.
# pHH3 = assay: In vivo PD in PC-3 CDX model: tumor pHH3 IHC, mitotic arrest (Example 4); set-up: species or system Mus Musculus; conditions: single dose
# Experimental: The objective of the research is to evaluate the in vivo PK/PD of test agents in treatment of PC-3 CDX model in Balb/c nude mice.
# Each mouse was inoculated subcutaneously at the right flank with PC-3 tumor cells (10×10^6) in 0.2 mL of PBS for tumor development. The animals were randomized and dosed when the average tumor volume reached approximately 440 mm^3 for the PK/PD study. The test article administration and time points in each group were shown in the experimental design table.
# Mice were randomly grouped based on tumor volume and dosed as experimental design. Plasma, serum, muscle and tumors were collected at 1 h, 2 h, 8 h, 24 h, 48 h, 72 h and 96 h post dosing.
# 3 tumors of a mouse cohort were embed into 1 FFPE block.
# • 5 μm FFPE tissue section loaded on Ventana XT; • Deparaffinization was selected; • EDTA based CC1 Standard heat antigen retravel was selected; • Option 1 (Protein blocker, Invitrogen Cat #1890588) was selected and incubate for 32 Min; • CC3 antibody (CST Cat #9661) 1:200 dilution was applied and incubated for 60 min at 37° C. • Apply One Drop of [OMap anti-Rb HRP] […]
# CTG-2393 = assay: Champions TumorGraft NSCLC PDX efficacy, model CTG-2393; format: in vivo, Mus musculus
# Experimental: as §1, §2, §3, §4, §5, §6, §7, §8
# Animals were dosed according to the schedule on Table 7-1. The study was terminated on Day 28.
# [1] = CTG-0838, 3 mg/kg IV Q7Dx4, Day 0-27
# [2] = CTG-2393, 3 mg/kg IV Q7Dx4, Day 0-28
structure (smiles),measurement,setting,value
CC[C@H](C)[C@@H]([C@@H](CC(=O)N1CCC[C@H]1[C@H](OC)[C@@H](C)C(=O)N[C@H](C)[C@@H](O)c1ccccc1)OC)N(C)C(=O)[C@@H](NC(=O)[C@H](C(C)C)N(C)C(=O)OCc1ccc(NC(=O)[C@H](CCCNC(N)=O)NC(=O)[C@@H](NC(=O)CCCC(=O)ON2C(=O)CCC2=O)C(C)C)cc1)C(C)C [BT5528] (X1-V[Cit][PABC][NMeV]V[Dil][Dolaproine]-X2),mean body weight loss,CTG-0838; 3 mg/kg IV Q7Dx4,no mean body weight loss
same,MTV (mean tumor volume),"CTG-0838; 3 mg/kg IV Q7Dx4, Day 27",269±128 mm^3
same,TGI,"CTG-0838; 3 mg/kg IV Q7Dx4, Day 27",97%
same,# CR (complete responders),CTG-0838; [1],0/0/0
same,# PR (partial responders),CTG-0838; [1],0/0/0
same,# TFS (tumor-free survivors),CTG-0838; [1],0/0/0
same,% TGI,"CTG-0838; CTG-0838, 3 mg/kg IV Q7Dx4, Day 27",97%
same,Day 27 Tumor Volume Mean TV ± SEM,"CTG-0838; CTG-0838, BT5528 3 mg/kg IV Q7Dx4, Day 27, n=2",269 ± 128 mm^3
same,"mitotic arrest in tumor measurable by pHH3 IHC, time after dose",pHH3,≤ 24 hours
same,"mitotic arrest of tumor cells, time post-dose",pHH3,24 to 48 h
same,MTV (mean tumor volume),"CTG-2393; 3 mg/kg IV Q7Dx4, Day 28",158±25 mm^3
same,TGI,"CTG-2393; 3 mg/kg IV Q7Dx4, Day 28",107%
same,# CR (complete responders),CTG-2393; [2],0/0/0
same,# PR (partial responders),CTG-2393; [2],0/0/0
same,# TFS (tumor-free survivors),CTG-2393; [2],0/0/0
same,% TGI,"CTG-2393; CTG-2393, 3 mg/kg IV Q7Dx4, Day 28",107%
same,Day 28 Tumor Volume Mean TV ± SEM,"CTG-2393; CTG-2393, BT5528 3 mg/kg IV Q7Dx4, Day 28, n=2",158 ± 25 mm^3
